Data set [1] is described as follows: Compound dose that was proved to be lethally toxic to mice (q12h). The format is ADME. As to conditions: mouse, in vivo.
Data set [2] relates to Mus musculus. Kind of data set: Compound dose (dosing schedule - q8h) that prevented a decrease in RT activity and p24 antigen production without increase in cell viability in mice.* dose was found to be toxic. The format is functional.
The subject of data set [3] is Mus musculus. Kind of data set: Compound dose required to produce significant anti-HIV activity in mice after oral administration, given twice daily (q12h). The format is functional.
Data set [4] is described as follows: Compound dose that was proved to be lethally toxic to mice (q24h). The format is ADME. As to conditions: mouse, in vivo.
The subject of data set [5] is Mus musculus. The data set is described as follows: Compound dose (dosing schedule - q8h) that produced a decrease in RT activity without protection against decreased cell viability in mice. The format is functional.
The subject of data set [6] is Mus musculus. Kind of data set: Compound dose required to produce significant anti-HIV activity in mice after i.p. administration, given twice daily (q12h). In kind it is functional.

SMILES strings stand for the structures.

The values below come from ChEMBL document CHEMBL1132010, “In vivo anti-HIV activity of (+)-calanolide A in the hollow fiber mouse model” (Bioorg Med Chem Lett, 1999).

Consider `CCCc1cc(=O)oc2c3c(c4c(c12)OC(C)(C)C=C4)O[C@H](C)[C@@H](C)[C@@H]3O` [CALANOLIDE A], for which the values for the Toxic in data set [1] and in data set [4] were 200 mg/kg and 300 mg/kg, respectively. The Dose in data set [2] came to 150 mg/kg; in data set [3], 150 mg/kg; in data set [5], 100 mg/kg; in data set [6] it was 200 mg/kg.
